The target in assay [1] is T1, 348 GPCRs (Homo sapiens, UniProt P49682).
T1 construct: expressed in transfected cells; host or cells: HEK293A
T1 sequence (P49682 1-368): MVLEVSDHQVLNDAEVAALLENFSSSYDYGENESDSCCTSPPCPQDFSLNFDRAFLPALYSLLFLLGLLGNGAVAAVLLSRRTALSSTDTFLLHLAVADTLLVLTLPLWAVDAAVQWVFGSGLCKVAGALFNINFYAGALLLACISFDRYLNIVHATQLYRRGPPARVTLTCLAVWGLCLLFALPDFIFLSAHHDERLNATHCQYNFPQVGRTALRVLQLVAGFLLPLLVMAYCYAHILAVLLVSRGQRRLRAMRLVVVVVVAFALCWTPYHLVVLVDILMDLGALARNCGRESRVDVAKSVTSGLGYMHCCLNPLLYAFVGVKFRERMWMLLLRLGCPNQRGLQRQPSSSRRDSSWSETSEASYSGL
The assay is described as follows: TGFα-shedding assay-based GPCR screening with chimeric Gα subunit proteins. The format is cell-based.

The target of assay [2] is T2, 348 GPCRs (Homo sapiens, UniProt Q9NSD7).
T2 construct: expressed in transfected cells; host or cells: HEK293A
T2 sequence (Q9NSD7 1-469): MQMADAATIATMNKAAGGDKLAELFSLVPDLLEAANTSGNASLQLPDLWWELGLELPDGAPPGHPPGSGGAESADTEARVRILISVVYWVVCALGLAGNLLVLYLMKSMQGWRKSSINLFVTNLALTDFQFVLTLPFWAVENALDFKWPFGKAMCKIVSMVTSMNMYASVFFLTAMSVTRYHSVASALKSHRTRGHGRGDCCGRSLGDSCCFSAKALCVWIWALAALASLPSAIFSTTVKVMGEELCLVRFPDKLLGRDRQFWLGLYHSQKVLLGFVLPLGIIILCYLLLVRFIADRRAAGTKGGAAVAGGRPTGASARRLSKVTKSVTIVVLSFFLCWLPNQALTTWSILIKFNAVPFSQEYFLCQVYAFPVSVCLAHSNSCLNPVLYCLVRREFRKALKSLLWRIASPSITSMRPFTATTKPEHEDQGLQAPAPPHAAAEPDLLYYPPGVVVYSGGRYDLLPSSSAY
Described as above. The format is cell-based. The settings on record: RXFP3 (relaxin/insulin-like family peptide receptor 3); 10µM, Favipiravir 100μM.

The target of assay [3] is 348 GPCRs (Homo sapiens, UniProt P41595). The assay is described as above. The format is cell-based. The settings on record: 10µM, Favipiravir 100μM.
Assay [4] has as its target T3, 348 GPCRs (Homo sapiens, UniProt Q9Y271).
T3 construct: expressed in transfected cells; host or cells: HEK293A
T3 sequence (Q9Y271 1-337): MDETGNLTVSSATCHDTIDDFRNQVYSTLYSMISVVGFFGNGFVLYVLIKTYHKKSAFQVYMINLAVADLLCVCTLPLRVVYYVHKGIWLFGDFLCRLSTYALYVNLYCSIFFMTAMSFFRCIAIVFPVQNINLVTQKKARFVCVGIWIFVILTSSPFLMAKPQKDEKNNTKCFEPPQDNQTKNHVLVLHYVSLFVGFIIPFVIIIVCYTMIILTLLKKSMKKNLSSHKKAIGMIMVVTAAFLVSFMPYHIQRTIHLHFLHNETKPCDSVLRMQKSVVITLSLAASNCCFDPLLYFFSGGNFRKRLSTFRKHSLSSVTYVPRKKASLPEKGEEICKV
Described as above. Type of assay: cell-based.

The target of assay [5] is T4, 348 GPCRs (Homo sapiens, UniProt Q9NYV8).
T4 construct: expressed in transfected cells; host or cells: HEK293A
T4 sequence (Q9NYV8 1-317): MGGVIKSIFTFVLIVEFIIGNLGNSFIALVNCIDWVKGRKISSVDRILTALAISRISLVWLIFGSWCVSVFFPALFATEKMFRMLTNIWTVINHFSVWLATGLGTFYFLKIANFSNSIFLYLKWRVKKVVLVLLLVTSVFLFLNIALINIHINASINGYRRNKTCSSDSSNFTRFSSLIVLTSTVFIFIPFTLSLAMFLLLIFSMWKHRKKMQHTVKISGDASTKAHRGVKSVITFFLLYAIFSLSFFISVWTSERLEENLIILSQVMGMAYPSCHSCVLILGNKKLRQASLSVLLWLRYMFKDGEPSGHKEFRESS
The assay is described as above. The settings on record: 10µM, Favipiravir 100μM. Type of assay: cell-based.

Assay [6] deals with T5, 348 GPCRs (Homo sapiens, UniProt O14843).
T5 construct: expressed in transfected cells; host or cells: HEK293A
T5 sequence (O14843 1-346): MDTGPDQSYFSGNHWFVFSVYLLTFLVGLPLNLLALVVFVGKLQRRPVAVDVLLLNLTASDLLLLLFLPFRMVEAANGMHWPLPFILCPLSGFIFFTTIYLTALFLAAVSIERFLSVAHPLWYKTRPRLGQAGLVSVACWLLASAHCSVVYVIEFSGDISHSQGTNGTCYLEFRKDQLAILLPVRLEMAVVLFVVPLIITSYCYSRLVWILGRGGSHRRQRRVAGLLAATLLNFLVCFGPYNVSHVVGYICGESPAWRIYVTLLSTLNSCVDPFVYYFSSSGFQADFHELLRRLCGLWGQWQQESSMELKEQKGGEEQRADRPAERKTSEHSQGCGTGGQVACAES
The description is as above. The following applies: 10µM, Favipiravir 100μM. Type of assay: cell-based.

For assay [7], the target named is 348 GPCRs (Homo sapiens, UniProt P51681). The description is as above. The format is cell-based. The settings on record: 10µM, Favipiravir 100μM.
In assay [8] the target is T6, G protein-coupled receptor 183 (Epstein-Barr Virus Induced Gene 2) (Homo sapiens, UniProt P32249).
T6 construct: gene GPR183
The assay is described as follows: cell-based. Details: species or system HEK293A; AP-TGFα shedding assay, transfected GPCR plus chimeric Gα mixture, AP release as % of TPA response. The settings on record: HEK293-A.

[9] abbreviates: read-out: % GPCR activation compared to TPA, GPCR CXCR3 (C-X-C motif chemokine receptor 3).
Setting [10] is: read-out: % GPCR activation compared to TPA, HTR2B (5-hydroxytryptamine (serotonin) receptor 2B).
Where [11] appears, read: read-out: % GPCR activation compared to TPA, GPCR CysLT1 (cysteinyl leukotriene receptor 1).
Where [12] appears, read: read-out: % GPCR activation compared to TPA, TAS2R14 (taste receptor, type 2, member 14).
Setting [13] is: read-out: % GPCR activation compared to TPA, FFA3 (free fatty acid receptor 3).
[14] abbreviates: CCR5, read-out: % GPCR activation compared to TPA, CCR5 (C-C motif chemokine receptor 5).
The mark [15] stands for this setting: HTR2B (5-hydroxytryptamine (serotonin) receptor 2B), read-out: % GPCR activation compared to TPA.
[16] abbreviates: TAS2R14 (taste receptor, type 2, member 14), read-out: % GPCR activation compared to TPA.
Where [17] appears, read: FFA3 (free fatty acid receptor 3), read-out: % GPCR activation compared to TPA.
The mark [18] stands for this setting: CCR5, CCR5 (C-C motif chemokine receptor 5), read-out: % GPCR activation compared to TPA.
The mark [19] stands for this setting: GPCR CXCR3 (C-X-C motif chemokine receptor 3), read-out: % GPCR activation compared to TPA.
The mark [20] stands for this setting: GPCR CysLT1 (cysteinyl leukotriene receptor 1), read-out: % GPCR activation compared to TPA.

Like-named read-outs stand apart in the source and are kept apart here.

Experimental findings from PMC10175918 (Communications Biology, 2023) are described below.

Sequence of 348 GPCRs (Homo sapiens, UniProt P51681) (P51681 whole entry): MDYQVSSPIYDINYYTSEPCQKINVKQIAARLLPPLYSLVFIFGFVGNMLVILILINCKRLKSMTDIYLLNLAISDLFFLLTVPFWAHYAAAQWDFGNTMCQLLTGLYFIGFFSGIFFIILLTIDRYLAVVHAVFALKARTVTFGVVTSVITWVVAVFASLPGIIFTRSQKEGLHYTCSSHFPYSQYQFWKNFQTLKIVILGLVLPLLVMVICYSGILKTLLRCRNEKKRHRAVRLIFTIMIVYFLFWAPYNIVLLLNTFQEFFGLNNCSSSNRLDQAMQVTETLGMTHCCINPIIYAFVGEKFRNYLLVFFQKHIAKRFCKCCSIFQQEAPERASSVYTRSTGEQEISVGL
T6 sequence (P32249 whole entry): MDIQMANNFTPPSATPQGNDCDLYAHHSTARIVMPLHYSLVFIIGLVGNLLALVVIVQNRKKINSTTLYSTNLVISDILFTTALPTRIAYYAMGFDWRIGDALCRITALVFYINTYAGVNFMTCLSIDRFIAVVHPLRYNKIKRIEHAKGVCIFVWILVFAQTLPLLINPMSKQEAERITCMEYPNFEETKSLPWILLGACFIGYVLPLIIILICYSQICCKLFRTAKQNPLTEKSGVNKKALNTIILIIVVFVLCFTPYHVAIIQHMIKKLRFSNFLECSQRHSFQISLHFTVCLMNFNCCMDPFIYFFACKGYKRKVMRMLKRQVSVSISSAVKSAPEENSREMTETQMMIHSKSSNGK
Sequence of 348 GPCRs (Homo sapiens, UniProt P41595) (P41595 whole entry): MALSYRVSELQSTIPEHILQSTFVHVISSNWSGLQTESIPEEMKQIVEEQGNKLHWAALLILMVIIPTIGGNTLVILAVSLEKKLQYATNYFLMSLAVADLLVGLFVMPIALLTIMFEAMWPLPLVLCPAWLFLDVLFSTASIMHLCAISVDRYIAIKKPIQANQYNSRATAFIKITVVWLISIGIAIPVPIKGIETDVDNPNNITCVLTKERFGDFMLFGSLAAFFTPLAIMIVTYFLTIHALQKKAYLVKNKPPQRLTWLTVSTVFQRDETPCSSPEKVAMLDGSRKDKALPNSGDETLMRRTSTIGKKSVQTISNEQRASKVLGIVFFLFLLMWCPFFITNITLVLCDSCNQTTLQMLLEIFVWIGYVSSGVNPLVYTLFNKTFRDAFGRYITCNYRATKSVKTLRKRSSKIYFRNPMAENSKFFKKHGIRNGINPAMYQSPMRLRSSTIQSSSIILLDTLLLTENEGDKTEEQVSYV

In the case of `CC(C)OC(=O)[C@H](C)N[P@](=O)(OC[C@H]1O[C@@H](n2ccc(=O)[nH]c2=O)[C@](C)(F)[C@@H]1O)Oc1ccccc1` [sofosbuvir], the activation at 10 µM in assay [1] (setting [9]) was -2.03%; in assay [4] (setting [11]), -1.58%; in assay [6] (setting [13]), 0.217%; in assay [7] (setting [14]), -0.363%. In addition, the “% GPCR activation compared to TPA” value in assay [2] was -2.192%. Besides, the values for the activation at 100 µM in assay [3] (setting [10]) and in assay [5] (setting [12]) were -0.398% and -1.26%, respectively. Moreover, in assay [8] (read-out: % GPCR activation of 10μM Sofosbuvir compared to TPA), the activity at 10 µM was -0.758%.
Consider `NC(=O)c1nc(F)cnc1O` [favipiravir, 6-fluoro-3-hydroxy-2-pyrazinecarboxamide], for which the activation at 100 µM is -0.62% in assay [1] (GPCR CXCR3 (C-X-C motif chemokine receptor 3), 100μM, read-out: % GPCR activation compared to TPA); 0.187% in assay [3] (setting [15]); -0.478% in assay [4] (GPCR CysLT1 (cysteinyl leukotriene receptor 1), 100μM, read-out: % GPCR activation compared to TPA); 0.627% in assay [5] (setting [16]). The “% GPCR activation compared to TPA” value in assay [2] came out at 1.399%. For the same molecule, the values for the activation at 10 µM in assay [6] (setting [17]) and in assay [7] (setting [18]) were -0.552% and 1.19%, respectively. Further, the activity at 100 µM in assay [8] (read-out: % GPCR activation of 100μM Favipiravir compared to TPA) is -1.16%.
For the molecule `CCC(CC)COC(=O)[C@H](C)N[P@](=O)(OC[C@H]1O[C@@](C#N)(c2ccc3c(N)ncnn23)[C@H](O)[C@@H]1O)Oc1ccccc1` [remdesivir], the activation at 10 µM in assay [1] (setting [9]) was -0.708%; in assay [4] (setting [11]) it was 0.442%; in assay [6] (setting [13]), 4.74%; in assay [7] (setting [14]), 2.38%. Moreover, the “% GPCR activation compared to TPA” value in assay [2] came to 3.551%. Also, the activation at 100 µM was -4.14% in assay [3] (setting [10]) and -1.51% in assay [5] (setting [12]). Besides, the activity at 10 µM in assay [8] (read-out: % GPCR activation of 10µM Remdesivir compared to TPA) amounted to 0.482%.
Turning to `N#C[C@@]1(c2ccc3c(N)ncnn23)O[C@H](CO)[C@@H](O)[C@H]1O` [GS441524], the activation at 10 µM in assay [1] (setting [19]) was -3.08%; in assay [4] (setting [20]), -1.14%; in assay [6] (setting [17]) it was -0.449%; in assay [7] (setting [18]), -0.436%. For the same molecule, the “% GPCR activation compared to TPA” value in assay [2] is reported as 1.985%. For the same molecule, the activation at 100 µM is 0.0796% in assay [3] (setting [15]) and -2.2% in assay [5] (setting [16]). For the same molecule, the activity at 10 µM in assay [8] (read-out: % GPCR activation of 10μM GS441524 compared to TPA) was -1.47%.
Regarding `CC(C)C(=O)OC[C@H]1O[C@@H](n2ccc(NO)nc2=O)[C@H](O)[C@@H]1O` [molnupiravir], the activation at 10 µM in assay [1] (setting [19]) is -2.3%; in assay [4] (setting [20]), -1.72%; in assay [6] (setting [17]), -0.0973%; in assay [7] (setting [18]), -2.34%. Besides, the “% GPCR activation compared to TPA” value in assay [2] is listed as -2.923%. In addition, the activation at 100 µM in assay [3] (setting [15]) was -1.16%; in assay [5] (setting [16]) it was -1.82%. Further, the activity at 10 µM in assay [8] (read-out: % GPCR activation of 10µM Molnupiravir compared to TPA) was -0.842%.
